# From patent US5919755A, “Medical use of heme products” (Leiras OY, priority 1995, dated 1999)
# Several values for one entry are separate records, joined by “and”; a condition that tells them apart may be missing. Identical values can stand only once. Like-named read-outs stand apart in the source and are kept apart here.
# Tests used:
# [1] = cited from earlier work
# [2] = cited from earlier work; remark: listed apart in the source
# myelodysplastic syndrome [3] = conditions: cited from earlier work
# [4] = test system: myelodysplastic syndromes; conditions: part of MDS patients; cited from earlier work
# [5] = test system: polychromatic erythrocytes; test: Mouse micronucleus assay (micronucleated polychromatic erythrocytes in bone marrow smears); type: in vivo, mouse (CD-1 outbred, Swiss origin); conditions: for Incidence: number of micronucleated polychromatic erythrocytes per 1000 polychromatic erythrocytes examined: 36 mg/kg i.v.
# Text: 1. Mouse micronucleus assay
# Micronuclei are seen in a variety of cells, but erythrocytes are chosen for examination since micronuclei are easily detected in this cell type.
# A few hours after the last mitosis is completed, erythroblasts expel their nucleus. Young erythrocytes stain blue with Giemsa due to the presence of ribonucleic acid, which gradually disappears so that more mature erythrocytes stain pink with Giemsa. The young blue-staining cells are known as polychromatic erythrocytes and micronuclei are readily detected in this cell type.
# The test animals were specific pathogen free CD-1 outbred mice of Swiss origin weighing between 22 and 24 grams and approximately 40 days old during the study. The mice were acclimatized for four days and after that dosed by intravenous injection with a volume of 10 ml/kg body weight either with saline solution (vehicle control) or with heme arginate solution at the dose 36 mg hemin/kg body weight. Five male and five female mice were sacrificed by cervical dislocation 24, 48, and 72 hours after dosing. A direct bone marrow smear was made from femur onto a slide containing a drop of calf serum. The smears were fixed in methanol, air dried, and stained for 10 minutes in 10% Giemsa solution. The stained smears were examined (under code) by light microscopy to determine the incidence of micronucleated cells per 1000 polychromatic erythrocytes per animal.
# blasts in bone marrow = test: Proportion of blasts in the bone marrow of myelodysplastic patients; type: in vivo, human; conditions: for Blasts in bone marrow, after / Myeloblasts in bone marrow, after / Sum of blasts and myeloblasts in bone marrow, after: one week after last of 15 infusions, 3 mg hemin/kg i.v.; for Myelodysplastic syndrome subtype, after: after treatment
# Protocol: 2. Proportion of blasts in the bone marrow of myelodysplastic patients
# In a clinical study patients with myelodysplastic syndromes were treated with intravenous infusions of heme arginate at the dose level 3 mg hemin/kg. The infusions were given first on four consecutive days and after that once a week for eleven weeks. Thus totally 15 infusions were given to each patient.
# Bone marrow sample was collected from each patient before start of the heme arginate infusions and one week after the last infusion. Proportion of blasts and myeloblasts were determined in the bone marrow samples by using standard hematological laboratory procedures. The definition of "a blast" as used in the classification of myelodysplastic syndromes includes both blasts and myeloblasts (9).
# plasma proteins = conditions: after infusion into the blood stream; cited from earlier work
# [6] = test system: human erythroid precursors; test: Induction of production of fetal hemoglobin in vitro (two-phase liquid culture, HPLC); type: cell-based
# Text: Cells grown in phase II in the presence of the indicated concentrations of heme arginate, were harvested on day 13 and their hemoglobin quantitated.
# Cells grown in phase II in the presence of the indicated concentrations of heme arginate, were harvested on day 13 and their hemoglobin chromatographed and quantitated.
# Cells grown in phase II in the absence or presence of heme arginate from day 0 and with the indicated concentrations of hydroxyurea from day 5, were harvested on day 13 and their hemoglobin chromatographed and quantitated.
# 3. Induction of production of fetal hemoglobin in vitro
# Peripheral blood mononuclear cells obtained from normal volunteers and either sickle cell anemia or β-thalassemia patients were isolated by centrifugation on a gradient of Ficoll-Hypaque and seeded at a density of 5×10^6 cells/ml in alpha-minimal essential medium supplemented with 10% fetal calf serum (FCS), 1 μg/ml cyclosporin A, and 10% conditioned medium collected from cultures of the 5637 bladder-carcinoma cell line. The cultures were incubated at +37° C. in an atmosphere of 5% CO2 in air with extra humidity.
# Following 7-day incubation in this phase I culture, the non-adherent cells were harvested, washed, and recultured in fresh medium composed of alpha-medium, 30% FCS, 1% deionized bovine serum albumin, 1×10^-5 M β-mercaptoethanol, 1.5 mM glutamine, 1×10^-6 M dexamethasone, and 1 U/ml human recombinant erythropoietin. Hemoglobin containing cells were determined by using the benzidine-HCl procedure.
# The effect of heme arginate on fetal hemoglobin (Hb-F) production was determined by growing human erythroid precursors in the second phase of the above described liquide cell culture in the presence of 1 U/ml erythropoietin and different concentrations of heme arginate. The combination effect of heme arginate and hydroxyurea was investigated with 100 μM heme arginate added on day 0 and various concentrations of hydroxyurea added on day 5. Cells were harvested on day 13 and lysed, and their total hemoglobin and Hb-F content was analyzed by cation-exchange HPLC.
# myelodysplastic syndrome [7] = conditions: cited from earlier work; remark: listed apart in the source
# [8] = humans, intravenous dose of 3 mg/kg; cited from earlier work
# [9] = rat, intravenous dose of 3 mg/kg; cited from earlier work
# [10] = of 26 patients, 2-3 mg hemin/kg
# [11] = Table 3, one line per patient, baseline before treatment
# [12] = Table 4, patients not considered good responders, one line per patient, baseline before treatment
# [13] = Table 4, patients not considered good responders, one line per patient
molecule,measurement,setting,value
Hemin,solubility,[1],poorly soluble
C=CC1=C(C)c2cc3[n-]c(cc4[n-]c(cc5nc(cc1n2)C(C)=C5C=C)c(C)c4CCC(=O)O)c(CCC(=O)O)c3C.O.[Fe+2] [hematin],adverse effects,"[2]; in vivo, iv","often complicated by adverse effects, including phlebitis at the infusion site and disturbances in hemostasis"
heme arginate,patients with MDS progression,myelodysplastic syndrome [3]; of 26 patients (13),4/26
same,patients showing improvement in cytopenias during the therapy,myelodysplastic syndrome [3]; [10],Six
same,patients with long-lasting good response with normal or close to normal blood cell counts,myelodysplastic syndrome [3]; [10],three
same,duration of long-lasting good response,"myelodysplastic syndrome [3]; single patients, 2-3 mg hemin/kg",> 11 months and > 12 months and 25 months
same,effect on blood cell counts,[4],clinically effective in part of MDS patients by increasing the blood cell counts
same,adverse effects,"[2]; intravenous use, incl. phlebitis at infusion site and disturbances in hemostasis",lack of serious adverse effects
same,adverse effects,"[2]; intravenous use, incl. phlebitis at infusion site and disturbances in hemostasis, listed as Heme arginate",seldom produces these effects and therefore is better tolerated
same,Incidence: number of micronucleated polychromatic erythrocytes per 1000 polychromatic erythrocytes examined,"[5]; killed 24 hours after dosing, vehicle control 1.2",1.1 per 1000 polychromatic erythrocytes
same,Incidence: number of micronucleated polychromatic erythrocytes per 1000 polychromatic erythrocytes examined,"[5]; killed 48 hours after dosing, vehicle control 1.0",0.5 per 1000 polychromatic erythrocytes
same,Incidence: number of micronucleated polychromatic erythrocytes per 1000 polychromatic erythrocytes examined,"[5]; killed 72 hours after dosing, vehicle control 1.0",0.4 per 1000 polychromatic erythrocytes
same,effect on incidence of mutagenesis (mouse micronucleus test),"[5]; in vivo, 36 mg/kg",able to decrease incidence of mutagenesis
same,"Blasts in bone marrow, before","blasts in bone marrow; Table 3, RAEB or RAEB-t patients, one line per patient, baseline before treatment",4% and 3% and 6% and 15% and 10%
same,"Blasts in bone marrow, after","blasts in bone marrow; Table 3, RAEB or RAEB-t patients, one line per patient",0% and 1% and 4% and 6%
same,"Myelodysplastic syndrome subtype, after","blasts in bone marrow; Table 3, one line per patient",RARS and RAEB
same,"Myeloblasts in bone marrow, before",blasts in bone marrow; [11],6% and 8% and 4% and 3% and 20%
same,"Myelodysplastic syndrome subtype, before",blasts in bone marrow; [11],RAEB and RAEB-t
same,"Myeloblasts in bone marrow, after","blasts in bone marrow; Table 3, one line per patient",4% and 3%
same,"Sum of blasts and myeloblasts in bone marrow, after","blasts in bone marrow; Table 3 and text, one line per patient",4% and 8% and 10%
same,patients with a clear decrease of blasts,"blasts in bone marrow; Table 3 patients, of 21",5/21
same,"Blasts in bone marrow, before","blasts in bone marrow; Table 4, RARS or RAEB patients not considered good responders, one line per patient, baseline before treatment",5 and 8 and 2 and 3 and 1 and 4 and 0
same,"Myelodysplastic syndrome subtype, after","blasts in bone marrow; Table 4, one line per patient",RAEB and RARS
same,"Myelodysplastic syndrome subtype, before","blasts in bone marrow; Table 4, one line per patient, baseline before treatment",RAEB and RARS
same,"Myeloblasts in bone marrow, before",blasts in bone marrow; [12],4 and 2 and 8 and 9 and 3 and 10 and 5 and 1
same,"Sum of blasts and myeloblasts in bone marrow, before",blasts in bone marrow; [12],9 and 12 and 4 and 5 and 7 and 14 and 13 and 3 and 1 and 10
same,"Blasts in bone marrow, after",blasts in bone marrow; [13],5 and 8 and 0 and 2 and 3 and 1 and 4
same,"Myeloblasts in bone marrow, after",blasts in bone marrow; [13],3 and 2 and 1 and 7 and 6 and 10 and 9 and 5 and 0
same,"Sum of blasts and myeloblasts in bone marrow, after",blasts in bone marrow; [13],8 and 11 and 2 and 3 and 7 and 13 and 4 and 12 and 6 and 1 and 9
same,patients with a smaller decrease of blasts,"blasts in bone marrow; Table 4 patients, of 21",12/21
same,patients with no effect on blasts,"blasts in bone marrow; Table 4 patients, of 21",1/21
same,patients with slight increase of blasts,"blasts in bone marrow; Table 4 patients, of 21",3/21
same,"patients with some decrease of blasts, totally","blasts in bone marrow; all patients, of 21",17/21
same,effect on proportion of blasts in bone marrow,blasts in bone marrow; some MDS patients,able to decrease proportion of blasts
same,solubility,[1],increases the aqueous solubility
same,plasma protein binding,plasma proteins,quickly bound to the plasma proteins in monomeric form
same,amount of total hemoglobin produced,"[6]; FIG. 1, phase II culture, harvested day 13, erythroid precursors from patients with hemoglobinopathies",increases the amount of total hemoglobin
same,proportion of fetal hemoglobin (Hb-F),"[6]; FIG. 2, phase II culture, harvested day 13, heme arginate alone",increases the proportion of fetal hemoglobin
same,effect of heme arginate on proportion of fetal hemoglobin (Hb-F) in presence of hydroxyurea,"[6]; FIG. 3, heme arginate 100 μM from day 0, hydroxyurea 25-200 μM from day 5, harvested day 13",potentiated by the presence of hydroxyurea
same,patients with MDS progression,myelodysplastic syndrome [7]; of 14 patients (15),4/14
same,patients with decrease of blasts,"myelodysplastic syndrome [7]; of 14 patients (15), considered to be an occasional event",1/14
same,patients with long-lasting improvement in hemoglobin values and/or platelet counts,"myelodysplastic syndrome [7]; of 14 patients, 3 mg hemin/kg",Three
same,duration of long-lasting improvement in hemoglobin values and/or platelet counts,"myelodysplastic syndrome [7]; single patients, 3 mg hemin/kg",5 months and 26 months and > 41 months
same,AUC,[8],998 µg/mL/h
same,AUC,[9],64 µg/mL/h
